Measured values reported in patent publication US11932599B2, “Ferroptosis inducing compound, compositions comprising the same, and methods of inducing ferroptosis” (UNIVERSITY OF MASSACHUSETTS, priority 2021, dated 2024).
pEC50: −log10 of the molar value.

Tests used:
[1] = test system: MCF10A non-malignant breast epithelial cell; experiment: Cell viability assay, cytotoxicity in MCF10A cells; assay type: cell-based; conditions: 48 hours
Protocol: (§1) Cell lines and media. In the following example, HT-1080 (Human fibrosarcoma harboring NrasQ61K) cells (obtained from ATCC) were grown in DMEM high-glucose media with 1% non-essential amino acids (Life Technologies) and 10% FBS. 143B cells were grown in DMEM high-glucose media with 1% glutamine and 10% FBS. Calu-1 cells were grown in McCoy's 5A media (Life Technologies) supplemented with 10% FBS. All the cell lines were grown at 37° C. under 5% CO2. Cell lines were not tested for mycoplasma. In addition, the panel of four lung cancer (NCI-H23; SK-Mes-1; Calu6 and A549) were purchased from ATCC. They were cultured according to the ATCC protocol of each cell line. […]
(§2) Cell viability assay. […] Fluorescence intensity (excitation/emission: 540/590) was measured with a Victor 3 plate reader (PerkinElmer), and the normalized viability was calculated as VL=(IL−I0)/(IV−I0), where VL is the normalized viability, I0 is the raw fluorescence intensities from the wells containing media, IV is the cells treated with a vehicle (negative control), and IL is the cells with the lethal compound (L), respectively. The viability was typically measured in at least biological duplicate. […]
(§3) In addition, the compound TKD1079 was also analyzed for cytotoxicity in four different lung cancer cell lines according to the procedure described above. […]

[2] = test system: four lung cancer cell lines (NCI-H23, Calu6, A549, SK-Mes-1); experiment: Cell viability of four lung cancer cell lines cotreated with ferrostatin-1; assay type: cell-based; conditions: ferrostatin-1 500 nM, 48 h
Protocol: as §1, §2

HT-1080 cells [3] = experiment: Cell viability assay in HT-1080 cells, cotreatment with cell-death inhibitors; assay type: cell-based, human; conditions: HT-1080, 48 h; for EC50: Homo sapiens, read-out: EC50 (μM) of TKD1079 + inhbitor
HT-1080 cells [4] = experiment: Cell viability assay (Alamar Blue), cytotoxicity in HT-1080 cells; assay type: cell-based, human; conditions: Homo sapiens
Protocol: (§4) Cell lines and media. In the following example, HT-1080 (Human fibrosarcoma harboring NrasQ61K) cells (obtained from ATCC) were grown in DMEM high-glucose media with 1% non-essential amino acids (Life Technologies) and 10% FBS. 143B cells were grown in DMEM high-glucose media with 1% glutamine and 10% FBS. Calu-1 cells were grown in McCoy's 5A media (Life Technologies) supplemented with 10% FBS. All the cell lines were grown at 37° C. under 5% CO2. Cell lines were not tested for mycoplasma. In addition, the panel of four lung cancer (NCI-H23; SK-Mes-1; Calu6 and A549) were purchased from ATCC. They were cultured according to the ATCC protocol of each cell line. The non-malignant breast epithelial cells (MCF10A) were maintained in DMEM/F12 medium supplemented with 5% horse serum, epidermal growth factor (20 ng/ml), insulin (10 μg/ml), hydrocortisone ([…]), cholera toxin (100 ng/ml), and penicillin/streptomycin.
(§5) Cell viability assay. 9,000 cells per 100 μl were seeded in each well in 96-well plates. Lethal compounds were dissolved in DMSO. In the mother plates, DMSO stock of each compound was further diluted with media to create 20 μM or 10 μm as highest concentrations, respectively and a twofold, 9-point dilution series was prepared. Cells were seeded for 24 h and media were replaced by the mother plate drug-dilution media. When ferroptosis inhibitors (for example, 500 nM Ferrostatin-1, 100 μM α-tocopherol, 152 μM deferoxamine) were used in cotreatments with lethal inducers, they were supplemented to cell culture when the lethal compounds were added, and the cells were then incubated for 48 h. When other cell-death-modulating compounds (100 nM sodium selenite) were used in cotreatments, they were supplemented to cell culture for 24 h before lethal compounds were added to cell culture, after which cells were further incubated for 48 h at 37° C. under 5% CO2. On the day of the viability measurement, we added 25 μl per well of 50% Alamar Blue diluted in media (Life Technologies) and further incubated the cells at 37° C. for 6 h. Fluorescence intensity (excitation/emission: 540/590) was measured with a Victor 3 plate reader (PerkinElmer), and the normalized viability was calculated as VL=(IL−I0)/(IV−I0), where VL is the normalized viability, I0 is the raw fluorescence intensities from the wells containing media, IV is the cells treated with a vehicle (negative control), and IL is the cells with the lethal compound (L), respectively. The viability was typically measured in at least biological duplicate. A representative dose-response curve, the mean and standard error of normalized viability from one replicate were plotted.
Statistical analysis and data visualization. Dose-response curve plotting and EC50 computation were performed with Prism 6.0c (GraphPad Software).
Various compounds were selected for analysis of their cytotoxicity in HT-1080 cells according to the procedure described above.

HT-1080 cells [5] = experiment: Analysis of ROS generation: lipid ROS by C11-BODIPY flow cytometry; assay type: cell-based, human; conditions: C11-BODIPY (2 μM), 4 hours
Protocol: Analysis of ROS Generation. 200,000 HT-1080 cells were seeded in six-well plates at 37° C. for 17 h. Cells were treated with TKD1079 compound, trypsinized, pelleted, and washed once with PBS. For lipophilic or aqueous ROS detection, cells were re-suspended in Hanks' Balanced Salt Solution (HBSS; Life Technologies) containing test compounds as well as C11-BODIPY(581/591) (2 μM) (Life Technologies), and incubated for 10 min at 37° C. Cells were then pelleted, re-suspended in 250 μL HBSS in a BD Falcon tube, and analyzed using a BD Accuri C6 flow cytometer (BD Biosciences). Both dyes were measured in the FL1 channel.

Beas-2B epithelial cells = experiment: Cell viability assay, cytotoxicity in Beas-2B cells; assay type: cell-based; conditions: 48 hours
Protocol: as §5, with “When other cell-death-modulating compounds (100 nM sodium selenite) were used in cotreatments, they were supplemented to cell culture for 24 h before lethal compounds were added to cell culture, after which cells were further incubated for 48 h at 37° C. under 5% CO2. On the day of the viability measurement, we added 25 μl per well of 50% Alamar Blue diluted in media (Life Technologies) and further incubated the cells at 37° C. for 6 h.” left out, “A representative dose-response curve, the mean and standard error of normalized viability from one replicate were plotted.” left out
as §3

NCI-H23 cells = experiment: Cell viability assay, cytotoxicity in NCI-H23 cells; assay type: cell-based; conditions: 48 hours
Protocol: as §4
Cell viability assay. 9,000 cells per 100 μl were seeded in each well in 96-well plates. Lethal compounds were dissolved in DMSO. In the mother plates, DMSO stock of each compound was further diluted with media to create 20 μM or 10 μm as highest concentrations, respectively and a twofold, 9-point dilution series was prepared. […] Fluorescence intensity (excitation/emission: 540/590) was measured with a Victor 3 plate reader (PerkinElmer), and the normalized viability was calculated as VL=(IL−I0)/(IV−I0), where VL is the normalized viability, I0 is the raw fluorescence intensities from the wells containing media, IV is the cells treated with a vehicle (negative control), and IL is the cells with the lethal compound (L), respectively. The viability was typically measured in at least biological duplicate. […]
In addition, the compound TKD1079 was also analyzed for cytotoxicity in four different lung cancer cell lines according to the procedure described above. […] Cytotoxicity was also determined against MCF10A non-malignant breast epithelial cell, NCI-H1299 human non-small cell lung carcinoma cell line, and Beas-2B epithelial cells isolated from normal human bronchial epithelium.

In the case of `O=S(=O)(NC1CC2CCC1C2)c1ccc2c(c1)C(=NO)c1cc(S(=O)(=O)NC3CC4CCC3C4)ccc1-2` (stereo not shown) [TKD1079, N^2,N^7-di(bicyclo[2.2.1]heptan-2-yl)-9-(hydroxyimino)-9H-fluorene-2,7-disulfonamide], the “cytotoxicity in breast MCF10A cells” value [1] was “without harming”, the “cytotoxicity in the presence of Fer-1” value [2] was “blocked” and the “Slectivity in fold [EC50 (TKD1079 + inhibitor)/ EC50 inhbitor]” value (HT-1080 cells [3]; DFOM (152 μM)) was 34.2 fold. The “Slectivity in fold [EC50 (TDK1079 + inhibitor)/ EC50 inhbitor]” value (HT-1080 cells [3]; Ebselen (5 μM)) was 5.8 fold, the “Slectivity in fold [EC50 (TKD1079 + inhibitor)/ EC50 inhbitor]” value (HT-1080 cells [3]; Fer 1 (500 nM)) was 68.8 fold and the “Slectivity in fold [EC50 (TDK1079 + inhibitor)/ EC50 inhbitor]” value (HT-1080 cells [3]; Selenite (100 nM)) was 9.5 fold. The “Slectivity in fold [EC50 (TDK1079 + inhibitor)/ EC50 inhbitor]” value (HT-1080 cells [3]; TOFA (10 μM)) was 148.7 fold, the “Slectivity in fold [EC50 (TDK1079 + inhibitor)/ EC50 inhbitor]” value (HT-1080 cells [3]; Trolox (100 μM)) was 11.6 fold and the “Slectivity in fold [EC50 (TKD1079 + inhibitor)/ EC50 inhbitor]” value (HT-1080 cells [3]; ZVAD 45 μM) was 0.6 fold. The “blocking of the compound's lethality by the apoptosis inhibitor pathway (ZVAD)” value (HT-1080 cells [3]; ZVAD 45 μM) was “did not block”, the “Slectivity in fold [EC50 (TKD1079 + inhibitor)/ EC50 inhbitor]” value (HT-1080 cells [3]; aToc (100 μM)) was 13.5 fold and the EC50 (HT-1080 cells [3]; cotreated with DFOM (152 μM)) was 2.73 µM. For the same molecule, the EC50 (HT-1080 cells [3]; cotreated with Ebselen (5 μM)) was 0.459 µM, the EC50 (HT-1080 cells [3]; cotreated with Fer 1 (500 nM)) was 5.48 µM and the EC50 (HT-1080 cells [3]; cotreated with Selenite (100 nM)) was 0.758 µM. For the same molecule, the EC50 (HT-1080 cells [3]; cotreated with TOFA (10 μM)) was 11.8 µM, the EC50 (HT-1080 cells [3]; cotreated with Trolox (100 μM)) was 0.924 µM and the EC50 (HT-1080 cells [3]; cotreated with ZVAD (45 μM)) was 0.051 µM. It also gave an EC50 (HT-1080 cells [3]; cotreated with aToc (100 μM)) of 1.08 µM, an EC50 (HT-1080 cells [4]; HT-1080, 48 h, HT-1080 cells, 48 hours, no inhibitor, read-out: EC50 (μM) of TKD1079) of 0.0797 µM and a pEC50 (HT-1080 cells [4]; HT-1080, HT-1080 cells, compound alone, read-out: EC 50) of 7.10. The “lipid ROS generation during cell death” value (HT-1080 cells [5]) was “increased”, the “cytotoxicity in normal human lung Beas-2B cells” value (Beas-2B epithelial cells) was “without harming” and the “ferroptosis induction in NCI-H23 using ferroptosis inhibitors” value (NCI-H23 cells; NCI-H23, DFOM (152 μM) and Fer-1 (0.5 μM)) was “induces ferroptosis”. For the same molecule, the “cytotoxicity (cell viability) in NCI-H23 cells” value (NCI-H23 cells; NCI-H23 cells) was “highly potent”.
